The text below walks through data of patent US8044028B2, “Oligopeptides and their use in cosmetics” (Cognis France S.A.S., priority 2004, dated 2011).

No end group written: not given here. *: point of attachment. Palmitoyl = CCCCCCCCCCCCCCCC(=O)*

The test system of assay [1] is human keratinocytes. In words: Effects on the growth of human primary keratinocytes (cellular DNA content, ethidium bromide fluorescence). The conditions noted are these: for DNA after culture for 4-5 days: % based on control (standard medium without additives = 100), average of 3 assays in triplicate; for growth of human keratinocytes (result in words): keratinocytes cultivated from biopsies of adult subjects, activity still detected after 5 days without changing medium; for DNA after culture for 3 days: % based on control = 100. The assay is classed as cell-based. The procedure:
The aim of this test was to analyse the revitalizing and regenerating activities of oligpopeptides according to the invention on human keratinocyte cultures in vitro.
Human keratinocytes were obtained by trypsinization of skin biopsies. They were incubated in standard medium for cell cultures with foetal calf serum (FCS) and growth factors (EGF 10 ng/ml). After cultivation for 2 days at 37° C. and a CO2 content of 5%, the medium was replaced by standard medium with varying concentrations of peptides. […] The fluorescence was determined using a fluorimeter (excitation at 538 nm and emission at 590 nm). The foetal calf serum forms a positive control because it comprises many growth factors, such as, for example, IGF (insulin-like growth factor) and PDGF (platelet derived growth factor).
The results are shown in Table 1 and 2 as the average value from 3 assays in triplicate in % based on a control in which the standard medium comprised no additives.

Assay [2] relates to syndecan-1. In words: Stimulation of the synthesis of syndecan-1 on human keratinocytes (immunocytochemistry, image analysis). The class given is cell-based. To be noted: keratinocyte culture, biopsies of adult subjects. The procedure: Monoclonal antibody anti-syndecan-1 and secondary antibody FITC conjugated were obtained from TEBU, Le Perray en Yvelines and BIO-RAD, Marnes-la-Coquette; KGF (Keratinocyte Growth Factor) (positive control) was obtained from SIGMA, L′Isle d'Abeau Chesnes.
Human keratinocytes were seeded in DMEM standard medium for 2 days at 37° C., CO2=5%. Then, N-Acetyl-Pro-Pro-Tyr-Leu (Seq. ID No. 375) or positive control KGF are introduced and after 5 days of incubation at 37° C., CO2=5%, the synthesis of syndecan-1 was evaluated on glass slides by immunocytochemistry. Quantification of the staining was carried out by image analysis.
The results are shown in table 3 as the mean of the sum±SEM of the product of number of pixels by green detected values (arbitrary unit).

“Arg-Arg-Arg-Pro-Arg (RRRPR; peptide derived from cathelicidin PR-39) [Example 2, R1=H, R2=OH]”: the “DNA after culture for 4-5 days” value in assay [1] (0.001 % (w/v) peptide) is given as 119 +/− 6%; in assay [1] (0.003 % (w/v) peptide) it was 126 +/− 8%. In addition, the “growth of human keratinocytes (result in words)” value (from here on “growth of human keratinocytes”) in assay [1] is recorded as “stimulate the growth of human keratinocytes”.
In the case of “Arg-Pro-Pro-Tyr-Leu (RPPYL; peptide derived from cathelicidin PR-39) [Example 3, R1=H, R2=OH]”, the “DNA after culture for 4-5 days” value in assay [1] (0.001 % (w/v) peptide) was 97 +/− 1%; in assay [1] (0.003 % (w/v) peptide), 118 +/− 10%. The “growth of human keratinocytes” value in assay [1] is listed as “stimulate the growth of human keratinocytes”.
In the case of “N-Acetyl-Pro-Pro-Tyr-Leu (Ac-PPYL) [[AA] is Pro-Pro-Tyr-Leu, R1 is Acetyl, and R2 is OH]”, the “syndecan-1 expression / synthesis in human keratinocytes (result in words)” value in assay [2] is on record as “stimulates the synthesis of syndecan-1”.
As for “N-Palmitoyl-Pro-Pro-Tyr-Leu (Palmitoyl-PPYL) [Example 7, [AA] is Pro-Pro-Tyr-Leu, R1 is Palmitoyl and R2 is OH]”, the figures for the “DNA after culture for 3 days” value in assay [1] (0.00005 % (w/v) peptide) and in assay [1] (0.00015 % (w/v) peptide) were 136 +/− 13% and 135 +/− 8%, respectively.
As for “Pro-Pro-Tyr-Leu (PPYL; peptide derived from cathelicidin PR-39) [Example 4, R1=H, R2=OH]”, the “DNA after culture for 4-5 days” value in assay [1] (0.001 % (w/v) peptide) was 150 +/− 26%; in assay [1] (0.003 % (w/v) peptide), 166 +/− 7%. Also, the “growth of human keratinocytes” value in assay [1] is “stimulate the growth of human keratinocytes”.
The matching figures for “Pro-Tyr-Leu-Pro-Arg (PYLPR; peptide derived from cathelicidin PR-39) [Example 5, R1=H, R2=OH]”: 118 +/− 3%, 112 +/− 5% and “stimulate the growth of human keratinocytes”.
On to RRRPRPPYLPRPRPP [Example 1], for which the “DNA after culture for 4-5 days” value in assay [1] (0.001 % (w/v) peptide) was 124 +/− 15%; in assay [1] (0.003 % (w/v) peptide) it was 131 +/− 11%. Also, in assay [1], the “growth of human keratinocytes” value was “stimulate the growth of human keratinocytes”.
Take Tyr-Leu-Pro-Arg-Pro [Example 6]: the “DNA after culture for 4-5 days” value is on record as 110 +/− 6% in assay [1] (0.001 % (w/v) peptide) and 146 +/− 24% in assay [1] (0.003 % (w/v) peptide). In addition, in assay [1], the “growth of human keratinocytes” value is listed as “stimulate the growth of human keratinocytes”.

B1: KGF: KGF (Keratinocyte Growth Factor) (positive control), obtained from SIGMA (protein, UniProt P21781 32-194, looked up)
Fibroblast growth factor 7: CNDMTPEQMATNVNCSSPERHTRSYDYMEGGDIRVRRLFCRTQWYLRIDKRGKVKGTQEMKNNYNIMEIRTVAVGIVAIKGVESEFYLAMNKEGKLYAKKECNEDCNFKELILENHYNTYASAKWTHNGGEMFVALNQKGIPVRGKKTKKEQKTAHFLPMAIT
Turning to B1, in assay [2], the “syndecan-1 expression / synthesis in human keratinocytes (result in words)” value is “induced an increase of syndecan-1 expression”.
